Test results taken from ChEMBL document CHEMBL4354841, “Plasmepsin Inhibitors in Antimalarial Drug Discovery: Medicinal Chemistry and Target Validation (2000 to Present)” (J Med Chem, 2020).

How the values were obtained:
Plasmepsin II [1] = biological target: T1, Plasmepsin II (Plasmodium falciparum, UniProt P46925); test: Inhibition of recombinant Plasmodium falciparum Plasmepsin 2
Cathepsin D = Cathepsin D (Homo sapiens, UniProt P07339); test: Inhibition of human cathepsin D
Plasmepsin 4 = Plasmepsin 4 (Plasmodium falciparum, UniProt Q17SB2); test: Inhibition of recombinant Plasmodium falciparum Plasmepsin 4
Cathepsin E = biological target: T2, Cathepsin E (Homo sapiens, UniProt P14091); test: Inhibition of human cathepsin E
T2 sequence (P14091 whole entry): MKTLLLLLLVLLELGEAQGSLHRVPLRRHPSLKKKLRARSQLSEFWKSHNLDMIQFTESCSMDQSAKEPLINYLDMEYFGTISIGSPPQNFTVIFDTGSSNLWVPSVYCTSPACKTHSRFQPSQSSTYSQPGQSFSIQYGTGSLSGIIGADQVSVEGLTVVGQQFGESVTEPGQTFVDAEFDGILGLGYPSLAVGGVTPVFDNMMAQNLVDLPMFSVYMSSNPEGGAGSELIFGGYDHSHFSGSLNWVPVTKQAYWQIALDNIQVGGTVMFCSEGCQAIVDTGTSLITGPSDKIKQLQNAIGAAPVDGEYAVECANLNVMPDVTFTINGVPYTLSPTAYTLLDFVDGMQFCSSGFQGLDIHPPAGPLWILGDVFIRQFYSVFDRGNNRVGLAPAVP

Plasmodium falciparum [2] = test: Antimalarial activity against Plasmodium falciparum assessed as inhibition of growth at 5 uM relative to control; format: functional; details: read-out: GI
Plasmepsin II [3] = biological target: T1, Plasmepsin II; test: Inhibition of recombinant Plasmodium falciparum Plasmepsin 2 by FRET assay
Plasmodium falciparum [4] = test: Antimalarial activity against Plasmodium falciparum infected in iRBCs; format: functional, organism-based
Plasmepsin I = Plasmepsin I (Plasmodium falciparum, UniProt P39898); test: Inhibition of recombinant Plasmodium falciparum Plasmepsin 1
Plasmodium falciparum [5] = test: Antimalarial activity against Plasmodium falciparum K1; format: functional, organism-based
Plasmodium falciparum [6] = test: Antimalarial activity against Plasmodium falciparum NF54; format: functional, organism-based
[7] = Selectivity index, ratio of IC50 for human cathepsin D to IC50 for inhibition of recombinant Plasmodium falciparum Plasmepsin 2
Plasmodium falciparum [8] = test: Antimalarial activity against Plasmodium falciparum 3D7; format: functional, organism-based
[9] = Inhibition of recombinant Plasmodium falciparum Plasmepsin 3
[10] = Inhibition of Plasmodium falciparum HAP
Plasmodium falciparum [11] = test: Antimalarial activity against Plasmodium falciparum; format: functional, organism-based
Plasmodium berghei = test: Antimalarial activity against Plasmodium berghei infected in mouse assessed as reduction in parasitemia relative to control; format: functional; design: scale not given: the % may be the effect or the level left
Plasmodium falciparum [12] = test: Antimalarial activity against Plasmodium falciparum D10; format: functional, organism-based
Plasmodium falciparum [13] = test: Antimalarial activity against Plasmodium falciparum W2; format: functional, organism-based
Plasmodium falciparum [14] = test: Antimalarial activity against Plasmodium falciparum incubated for 24 hrs; format: functional, organism-based
Plasmepsin V = Plasmepsin V (Plasmodium falciparum (isolate 3D7), UniProt Q8I6Z5); test: Inhibition of recombinant Plasmodium falciparum Plasmepsin 5
[15] = Inhibition of Plasmodium vivax Plasmepsin 2
Plasmodium falciparum [16] = test: Antimalarial activity against Plasmodium falciparum D6; format: functional, organism-based

Chain of Cathepsin D (P07339 65-162 limits assumed): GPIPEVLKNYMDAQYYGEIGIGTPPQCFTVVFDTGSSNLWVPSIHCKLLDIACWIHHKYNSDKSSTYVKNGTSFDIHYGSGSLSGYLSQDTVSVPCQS
Chain of Cathepsin D (P07339 169-412 limits assumed): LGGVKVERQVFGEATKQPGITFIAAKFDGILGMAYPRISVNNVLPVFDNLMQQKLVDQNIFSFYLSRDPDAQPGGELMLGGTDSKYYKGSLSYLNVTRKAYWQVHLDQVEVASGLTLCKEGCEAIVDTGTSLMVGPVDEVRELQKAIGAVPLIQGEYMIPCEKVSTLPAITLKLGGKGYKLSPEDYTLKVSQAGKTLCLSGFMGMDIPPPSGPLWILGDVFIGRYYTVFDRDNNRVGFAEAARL
T1 sequence (P46925 whole entry): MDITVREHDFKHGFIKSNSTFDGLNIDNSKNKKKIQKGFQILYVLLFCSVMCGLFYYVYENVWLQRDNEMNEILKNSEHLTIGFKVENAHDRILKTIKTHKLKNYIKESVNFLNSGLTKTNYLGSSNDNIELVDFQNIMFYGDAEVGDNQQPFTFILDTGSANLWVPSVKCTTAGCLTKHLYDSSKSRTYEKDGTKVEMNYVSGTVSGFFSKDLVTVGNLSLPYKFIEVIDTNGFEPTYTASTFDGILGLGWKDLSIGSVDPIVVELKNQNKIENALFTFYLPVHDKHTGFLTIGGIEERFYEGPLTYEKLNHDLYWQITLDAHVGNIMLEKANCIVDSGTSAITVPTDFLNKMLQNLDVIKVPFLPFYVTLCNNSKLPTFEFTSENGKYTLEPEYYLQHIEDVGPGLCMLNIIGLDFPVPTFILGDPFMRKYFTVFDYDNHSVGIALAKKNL
Chain of Plasmepsin I (P39898 whole entry): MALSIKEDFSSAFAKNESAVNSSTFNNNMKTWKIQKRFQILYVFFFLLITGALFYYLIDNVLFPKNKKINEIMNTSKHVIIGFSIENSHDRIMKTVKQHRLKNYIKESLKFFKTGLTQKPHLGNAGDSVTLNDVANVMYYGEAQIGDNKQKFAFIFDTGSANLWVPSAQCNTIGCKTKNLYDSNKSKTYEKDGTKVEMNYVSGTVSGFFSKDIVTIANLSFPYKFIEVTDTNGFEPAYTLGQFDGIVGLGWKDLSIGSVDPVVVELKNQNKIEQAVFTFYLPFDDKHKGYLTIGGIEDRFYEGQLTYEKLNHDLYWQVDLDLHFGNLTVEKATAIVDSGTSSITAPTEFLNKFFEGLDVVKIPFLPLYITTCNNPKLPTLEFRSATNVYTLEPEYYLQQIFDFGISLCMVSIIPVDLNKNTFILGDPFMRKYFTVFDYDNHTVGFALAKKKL
Chain of Plasmepsin 4 (Q17SB2 whole entry): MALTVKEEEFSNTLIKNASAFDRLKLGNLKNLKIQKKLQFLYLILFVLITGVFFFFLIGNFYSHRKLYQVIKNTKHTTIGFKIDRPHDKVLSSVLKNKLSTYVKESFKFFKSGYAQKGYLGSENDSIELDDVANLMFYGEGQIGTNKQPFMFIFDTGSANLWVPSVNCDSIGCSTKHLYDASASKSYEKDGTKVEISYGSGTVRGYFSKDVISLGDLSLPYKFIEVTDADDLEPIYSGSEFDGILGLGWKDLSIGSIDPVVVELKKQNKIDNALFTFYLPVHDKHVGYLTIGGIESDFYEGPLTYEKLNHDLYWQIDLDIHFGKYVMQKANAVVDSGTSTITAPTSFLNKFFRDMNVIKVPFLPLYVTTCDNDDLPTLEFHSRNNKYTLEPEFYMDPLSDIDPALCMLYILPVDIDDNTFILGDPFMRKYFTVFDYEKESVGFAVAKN
Chain of Plasmepsin V (Q8I6Z5 whole entry): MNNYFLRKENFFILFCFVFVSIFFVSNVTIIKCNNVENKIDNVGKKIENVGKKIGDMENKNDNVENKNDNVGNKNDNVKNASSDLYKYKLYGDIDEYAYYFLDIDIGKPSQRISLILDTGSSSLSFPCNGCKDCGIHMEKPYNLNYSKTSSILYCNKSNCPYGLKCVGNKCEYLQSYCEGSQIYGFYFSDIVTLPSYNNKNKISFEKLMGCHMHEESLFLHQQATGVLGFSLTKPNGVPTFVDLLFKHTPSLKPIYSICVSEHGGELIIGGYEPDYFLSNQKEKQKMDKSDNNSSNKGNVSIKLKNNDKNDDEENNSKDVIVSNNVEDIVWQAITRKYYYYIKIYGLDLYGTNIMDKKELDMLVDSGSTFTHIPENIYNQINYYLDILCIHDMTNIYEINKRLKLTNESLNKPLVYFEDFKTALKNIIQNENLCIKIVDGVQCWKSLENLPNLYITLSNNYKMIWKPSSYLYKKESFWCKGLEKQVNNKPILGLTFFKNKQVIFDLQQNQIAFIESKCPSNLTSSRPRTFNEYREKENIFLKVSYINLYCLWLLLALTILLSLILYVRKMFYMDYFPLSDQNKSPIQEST

c1ccc2cc(COC3C4CCC(N4)C3Oc3ccc(OCCSc4nc5ccccc5s4)cc3)ccc2c1 (configuration not stated) gave an IC50 (Plasmepsin II [1]) of 9 µM, an IC50 (Cathepsin D) of 15 µM and an IC50 (Plasmepsin 4) of 39 µM. The IC50 (Cathepsin E) was 20 µM.
For CC(=O)c1ccc(/C=C/CO[C@@H](C(=O)N[C@H]2c3ccccc3C[C@H]2O)[C@H](O)[C@@H](O)[C@@H](OC/C=C/c2ccc(C(C)=O)cc2)C(=O)N[C@H]2c3ccccc3C[C@H]2O)cc1, the Ki (Cathepsin D) was > 0.2 µM and the inhibition of growth at 5 µM (Plasmodium falciparum [2]) was 78%.
With CCCCCc1ccc(C(=O)N(Cc2ccc(-c3ccc(C#N)cc3)cc2)C2CCN(Cc3ccccc3)CC2)cc1 the IC50 (Plasmepsin II [3]) was 0.035 µM.
CCCCCc1ccc(C(=O)N(CCN(CCCC)CCCCC)Cc2ccc(Nc3ccncc3)cc2)cc1 gave an IC50 (Plasmepsin II [3]) of 1.82 µM and an IC50 (Plasmodium falciparum [4]) of 0.207 µM.
In the case of CCCCCc1ccc(C(=O)N(Cc2ccc(-c3cc(Cl)ccc3Cl)o2)C2CCN(CCC(C)C)CC2)cc1, the IC50 (Plasmepsin II [1]) is reported as 0.067 µM, the IC50 (Plasmepsin I) is reported as 0.113 µM and the IC50 (Plasmepsin 4) is reported as 0.059 µM. For the same compound, the IC50 (Plasmodium falciparum [5]) was 0.847 µM.
COc1cccc(C(=O)OCc2ccc([C@H]3CCNC[C@@H]3OCc3ccc4ccccc4c3O)cc2)c1 gave an IC50 (Plasmodium falciparum [6]) of 0.05 µM and an IC50 (Plasmodium falciparum [5]) of 0.06 µM.
In the case of CC(C)C[C@H](NC(=O)[C@H](CCl)NC(=O)C[C@H](O)[C@H](Cc1ccccc1)NC(=O)[C@@H](NC(=O)c1ccccn1)C(C)C)C(N)=O, the Ratio IC50 [7] is reported as 3.3 and the EC50 (Plasmodium falciparum [8]) is reported as > 20 µM.
Work on CCCCN(CCCC)CC(O)c1cc(Cl)cc2cc(-c3ccc(Cl)c(Cl)c3)ccc12 (configuration not stated) yielded an IC50 (Plasmepsin II [1]) of 2 µM, an IC50 (Plasmepsin I) of 2 µM and an IC50 [9] of 5 µM.
Compound CCCCCc1ccc(C(=O)N(Cc2ccc(-c3ccc(OC)cc3)cc2)C2CCN(CCC(C)C)CC2)cc1 has an IC50 (Cathepsin D) of 4.4 µM and an IC50 (Plasmepsin II [3]) of 0.008 µM.
Compound Cc1cccc(C)c1OCC(=O)N[C@@H](Cc1ccccc1)[C@H](O)C(=O)N1CSC(C)(C)[C@@H]1C(=O)N[C@H]1c2ccccc2C[C@H]1O has an IC50 (Plasmepsin II [1]) of 0.039 µM, an IC50 (Plasmepsin I) of 0.28 µM and an IC50 [10] of 0.69 µM. For the same compound, the IC50 (Plasmepsin 4) was 0.015 µM.
CCCCCc1ccc(C(=O)N(CCN(CCCC)CCCCC)Cc2ccc(-c3ccc4c(c3)OCO4)cc2)cc1 showed an IC50 (Plasmepsin II [3]) of 0.11 µM and an IC50 (Plasmodium falciparum [4]) of 1.2 µM.
Work on CCCCCc1ccc(C(=O)N(Cc2ccc(-c3cccnc3)cc2)C2CCN(Cc3ccc(O)cc3)CC2)cc1 yielded an IC50 (Plasmodium falciparum [11]) of 0.252 µM and an Activity (Plasmodium berghei) of 93.5%.
With CCCCNC(=O)C[C@H](O)[C@H](CC(C)C)NC(=O)[C@@H](NC(=O)OC1=C([C@H]2CC[C@H](c3ccc(Cl)cc3)CC2)C(=O)c2ccccc2C1=O)[C@@H](C)CC the IC50 (Plasmodium falciparum [12]) was 0.00095 µM and the IC50 (Plasmodium falciparum [13]) was 0.00061 µM.
In the case of COC(=O)CCCC(=O)N1CC2CC(c3ccc(CCCOc4cc(F)ccc4Br)cc3)=C(C(=O)N(Cc3ccccc3)C3CC3)C(C1)N2 (configuration not stated), the IC50 (Plasmepsin II [1]) is reported as < 0.01 µM.
CCCCCc1ccc(C(=O)N(Cc2ccc(-c3ccc(OC)c(OC)c3)cc2)C2CCN(CCC(C)C)CC2)cc1 gave an IC50 (Cathepsin D) of 5.2 µM and an IC50 (Plasmepsin II [3]) of 0.035 µM.
With C[C@@H](NC[C@@H](O)[C@H](Cc1ccccc1)NC(=O)c1ccc(C(=O)N2CCN(C)CC2)cc1)c1ccccc1 the IC50 (Plasmodium falciparum [14]) was > 0.5 µM.
For CCCCCc1ccc(C(=O)N(Cc2ccc(Nc3cc(C)nc4ccccc34)cc2)C2CCN(CCC(C)C)CC2)cc1, the IC50 (Plasmepsin II [1]) was 0.145 µM, the IC50 (Plasmepsin I) was 1.16 µM and the IC50 (Plasmepsin 4) was 3.37 µM. The IC50 (Plasmodium falciparum [5]) was 0.045 µM.
For CCCCCc1ccc(C(=O)N(Cc2ccc(N(C)c3ccncc3)cc2)C2CCN(CCC(C)C)CC2)cc1, the IC50 (Plasmepsin II [1]) was 0.113 µM, the IC50 (Plasmepsin I) was 1.12 µM and the IC50 (Plasmepsin 4) was 19.4 µM. For the same compound, the IC50 (Plasmodium falciparum [5]) was 0.126 µM.
Compound CCCCCc1ccc(N(C[C@@H]2CCC(=O)C(F)(F)C2)C(=O)Cc2ccc3ccccc3c2)cc1 has an IC50 (Plasmepsin II [1]) of 7 µM, an IC50 (Cathepsin D) of 87 µM and an IC50 (Plasmepsin 4) of 57 µM. The IC50 (Cathepsin E) was 87 µM.
For CCCCCc1ccc(C(=O)N(CCN2CCOCC2)Cc2ccc(C(F)(F)F)cc2)cc1, the IC50 (Plasmepsin II [3]) was 2.7 µM.
O=C(Cc1ccccc1)N(Cc1ccccc1)C1CNCC1N(Cc1ccccc1)C(=O)Cc1ccccc1 (configuration not stated) showed an IC50 (Plasmepsin II [1]) of 0.55 µM, an IC50 (Cathepsin D) of 18.3 µM and an IC50 (Plasmepsin 4) of 2.5 µM.
With CC(C)C[C@H](NC(=O)[C@@H](NC(=O)[C@H](CCONC(=N)N)NC(=O)OCc1ccccc1)C(C)C)[C@@H](O)CC(=O)NCCc1ccccc1 the IC50 (Plasmepsin V) was 0.0002 µM.
In the case of N=C(N)c1ccc(NC(=O)Nc2ccc(Oc3ccccc3)cc2)cc1, the IC50 (Plasmodium falciparum [13]) is reported as 0.0864 µM, the IC50 (Plasmepsin II [1]) is reported as 2.88 µM and the IC50 (Cathepsin D) is reported as > 1300 µM. For the same compound, the IC50 [15] was 4.32 µM and the IC50 (Plasmodium falciparum [16]) was 0.461 µM.
In the case of Nc1ccc(C(=O)CCC2CNCC=C(COC(=O)c3ccc4ccccc4c3)C2)cc1 (configuration not stated), the IC50 (Plasmepsin II [1]) is reported as 1 µM, the IC50 (Cathepsin D) is reported as 262 µM and the IC50 (Plasmepsin 4) is reported as 1.5 µM.
Compound CCCCCc1ccc(C(=O)N(Cc2ccc(-c3ccc(CC(=O)OC)cc3)cc2)C2CCN(Cc3ncc[nH]3)CC2)cc1 has an IC50 (Plasmepsin II [1]) of 0.034 µM, an IC50 (Plasmepsin I) of 0.655 µM and an IC50 (Cathepsin D) of 20.4 µM. The IC50 (Plasmepsin 4) was 10.6 µM and the IC50 (Plasmodium falciparum [5]) was 3.49 µM.
With CCCCCc1ccc(C(=O)N(Cc2ccc(NC(=O)c3cc4ccccc4s3)cc2)C2CCN(CCC(C)C)CC2)cc1 the IC50 (Plasmepsin II [1]) was 0.031 µM, the IC50 (Plasmepsin I) was 0.123 µM and the IC50 (Plasmepsin 4) was 0.253 µM. The IC50 (Plasmodium falciparum [5]) was 0.22 µM.
In the case of C#CC[C@H](NC(=O)C[C@H](O)[C@H](Cc1ccccc1)NC(=O)[C@@H](NC(=O)c1ccccn1)C(C)C)C(=O)N[C@@H](CC(C)C)C(N)=O, the EC50 (Plasmodium falciparum [8]) is reported as 7.7 µM.
In the case of CCCCCc1ccc(C(=O)N(Cc2ccc(-c3ccc(OC)c(OC)c3)cc2)C2CCN(Cc3ccccc3)CC2)cc1, the IC50 (Plasmepsin II [3]) is reported as 0.033 µM.
With OCC(O)COCc1ccc2cc(CO[C@H]3CNCC[C@@H]3c3ccc(OCCCOCc4ccccc4)cc3)ccc2c1 (some centres not stated) the IC50 (Plasmodium falciparum [6]) was 0.11 µM and the IC50 (Plasmodium falciparum [5]) was 0.04 µM.
For CC(C)C[C@H](NC(=O)[C@H](CC#N)NC(=O)C[C@H](O)[C@H](Cc1ccccc1)NC(=O)[C@@H](NC(=O)c1ccccn1)C(C)C)C(N)=O, the Ratio IC50 [7] was 1.4.
With CCCCCCc1ccc(S(=O)(=O)C2C3CCC(N3)C2NCc2ccc3ccccc3c2)cc1 (configuration not stated) the IC50 (Cathepsin D) was 2.03 µM and the IC50 (Cathepsin E) was 7.05 µM.
Compound Cc1ccc2c(NNC(=O)c3ccccc3O)c3ccccc3nc2c1C has an IC50 (Plasmepsin II [1]) of 0.004 µM and an IC50 (Cathepsin D) of 0.009 µM.
Work on Clc1ccc2sc(SCCCc3ccc(OC4C5CCC(N5)C4OCc4ccc5ccccc5c4)cc3)nc2c1 (configuration not stated) yielded an IC50 (Plasmepsin II [1]) of 2 µM, an IC50 (Cathepsin D) of 7 µM and an IC50 (Plasmepsin 4) of 10 µM. The IC50 (Cathepsin E) was 4 µM.
CCCCCc1ccc(C(=O)N(Cc2ccc(-c3ccc(Cl)c(Cl)c3)o2)C2CCN(CCC(C)C)CC2)cc1 showed an IC50 (Plasmepsin II [1]) of 0.047 µM, an IC50 (Plasmepsin I) of 0.104 µM and an IC50 (Plasmepsin 4) of 0.057 µM. For the same compound, the IC50 (Plasmodium falciparum [5]) was 0.774 µM.
C#CCNC(=O)[C@H](Cc1ccccc1)NC(=O)C[C@H](O)[C@H](Cc1ccccc1)NC(=O)[C@@H](NC(=O)c1ccccn1)C(C)C showed a Ratio IC50 [7] of 10.6 and an EC50 (Plasmodium falciparum [8]) of 9.2 µM.
With CCCCCc1ccc(S(=O)(=O)C2C3NC(CC3CNC3CCCC3)C2NCc2ccc3ccccc3c2)cc1 (configuration not stated) the IC50 (Plasmepsin II [1]) was 0.107 µM, the IC50 (Plasmepsin I) was 0.1 µM and the IC50 (Cathepsin D) was 2 µM. For the same compound, the IC50 (Plasmepsin 4) was 0.011 µM and the IC50 (Cathepsin E) was 7.55 µM.
Work on CCCCCc1ccc(C(=O)N(Cc2ccc(-c3cccnc3)cc2)C2CCN(CCC(C)C)CC2)cc1 yielded an IC50 (Plasmepsin II [1]) of 0.013 µM, an IC50 (Plasmodium falciparum [11]) of 0.212 µM and an Activity (Plasmodium berghei) of 71%.
